These results are taken from patent publication US20240156856A1, “NOVEL APPLICATIONS OF HYALURONIC ACID FOR TREATMENT OF PAIN AND PRURITIS” (THE REGENTS OF THE UNIVERSITY OF CALIFORNIA, priority 2022, published 2024).

One assay concerns rats. The note with it: previously shown; cited from earlier work.
Assay [1] has as its system 5-HT-induced scratching behavior in rats. Put plainly: 5-HT-induced scratching (itch) behavior. In kind it is in vivo. The conditions noted are these: topical, protamine vehicle. How it is done:
Topical hyaluronan attenuates itch behavior in rats. Intradermal administration of serotonin (5-HT) elicited acute scratching behavior, using the method of Nojima and Carstens {Nojima and Carstens, 2003, #99335; PMID: 12814838}. Rats were acclimated to a testing chamber for 30 min, and then briefly anesthetized with 2% isoflurane, during which the fur over the nape of the neck was shaved, and 5-HT (200 μg in 10 μl 0.9% saline vehicle) injected with a 30 gauge needle. In the topical hyaluronan group, hyaluronan (100 μg in 50 μl 75% DMSO in water vehicle) was applied to the skin 30 mins and again 5 mins before administration of 5-HT. Rats were placed back into testing chambers and their behavior video recorded for 40 min. Number of hind paw scratches directed at the injection site were counted by watching video playback at half normal speed, and total number of scratches in 2-min intervals recorded. Rats were treated with 5-HT alone and topical hyaluronan with 5-HT, with 4 days between experimental sessions, allowing for use of paired t-tests to compare data. Data are presented as cumulative number of scratches (FIG. 9A), and as total scratches over the 40-min observation period (FIG. 9B). […] See also, FIG. 10, which includes additional data showing that topical hyaluronan attenuates 5-HT-induced scratching behavior. […] Data are presented as cumulative number of scratches.

In assay [2] the test system is PGE2 hyperalgesia in male and female rats. Put plainly: PGE2-induced mechanical hyperalgesia, Randall-Selitto paw-withdrawal test. In kind it is in vivo, Sprague-Dawley rats. The conditions noted are these: for PGE2-induced hyperalgesia (mechanical nociceptive threshold): topical 2 μg/μL in 30 μL DMSO vehicle, 30 and 60 min after PGE2. How it is done: Experimental animals. Experiments were performed on 220-400 g male and female Sprague-Dawley rats, purchased from Charles River Laboratories (Hollister, CA, USA), housed three per cage, under a 12-hour light/dark cycle, in a temperature- and humidity-controlled animal care facility at the University of California, San Francisco. Food and water were available ad libitum. Experimental protocols were approved by the University of California, San Francisco, Institutional Animal Care and Use Committee, and adhered to the National Institutes of Health Guidelines for the care and use of laboratory animals.
Measurement of nociceptive threshold. Mechanical nociceptive threshold was quantified with an Ugo Basile Analgesymeter (Stoelting, Wood Dale, IL, USA), used to perform the Randall-Selitto paw-withdrawal test [61; 68; 69]. This device uses a dome-shaped plinth to apply a mechanical force that increases linearly with time, to the dorsum of a rat's hindpaw. To perform the Randall-Selitto paw-withdrawal test, rats were placed in cylindrical acrylic restrainers with lateral ports that allow access to the hind paw, as described previously. Rats were acclimatized to the testing procedure by placing them in restrainers for 1 h per day for 3 consecutive daily training sessions, and for 30-40 min prior to experiments.
Mechanical nociceptive threshold is defined as the force, in grams, applied by the plinth to the dorsum of the hindpaw, at which a rat withdraws its paw from the stimulus. Baseline paw-withdrawal threshold is defined as the mean of three readings taken before administration of test agents. To minimize experimenter bias, individuals conducting experiments were blinded to experimental treatments. Each experiment was performed on a different group of rats. Data are presented as mechanical nociceptive threshold, in grams (g) or percentage change from preintervention baseline.
Hyaluronans were initially dissolved in distilled water (dH2O) at a concentration of 10 μg/μL, stock solution, and further diluted by adding DMSO with three final concentrations of hyaluronan (1, 2 and 4 μg/μL), protamine or terpene; unless otherwise stated, the final concentration of DMSO was 75%. The DMSO vehicle was 75% DMSO in 0.9% saline. In one experiment, 500-1200 kDa hyaluronan was administered topically in 0.9% saline vehicle. PGE2 was dissolved in 0.9% saline at the same final concentration that we previously injected intradermally (100 ng/5 μL). […]

For hyaluronan [500-1200 kDa hyaluronan], the “nociceptive effect of intradermal injection” value in the assay with rats is recorded as “induced anti-hyperalgesia”. Besides, the “number of 5-HT-induced scratches” value in assay [1] (female rats) and in assay [1] (male rats) was “significantly attenuated the number of 5-HT-induced scratches” in each case. The “PGE2-induced hyperalgesia (mechanical nociceptive threshold)” value in assay [2] (female rats) and in assay [2] (male rats) was “attenuated PGE2-induced hyperalgesia” each time. Moreover, the “magnitude of topical anti-hyperalgesia compared with intradermal injection” value in assay [2] (topical, combined with DMSO) was “anti-hyperalgesia of similar magnitude to that produced by its intradermal injection”.
